In patent publication US4460503A, “Tuberculine active peptides and a process for preparing same by chemical synthesis” (priority 1983, dated 1984):
Where a SMILES comes first, the peptide text is derived from it. Where no end group is shown, it is not given here.

How the values were obtained:
[1] = tested on: anti-octapeptide antiserum; format: binding, Rabbits
[2] = tested on: guinea pigs sensitized with heat-killed M. bovis BCG-Pasteur; assay: Tuberculin skin test in BCG-sensitized guinea pigs; format: in vivo; conditions: for skin reaction: 200 μg dose in 100 μl PBS intradermally; for skin reaction / color intensity of skin reaction: after 24 h; for color intensity of skin reaction: 200 μg dose intradermally; for enduration: 200 μg peptide intradermally
Method: (§1) The tuberculin tests were carried out on guinea pigs sensitized 6 weeks before with heat-killed Mycobacterium tuberculosis strain Peurois or M. bovis BCG-Pasteur.
(§2) Doses of 200 μg of the octopeptide of formula (I) or of the hexadecapeptide of formula (II) in 100 µl of PBS buffer containing Tween 80, were administered intradermally in the ventral side of guinea pigs sensitized as mentioned above.
(§3) The appearance of a delayed-type tuberculin reaction was observed 24 h and 48 h after the injection.

[3] = peptides obtained after enzymatic digestion of the tuberculin-active protein; cited from earlier work
[4] = tested on: guinea pigs sensitized with heat-killed Mycobacterium tuberculosis strain Peurois; assay: Tuberculin skin test in M. tuberculosis strain Peurois-sensitized guinea pigs; conditions: 200 μg dose, after 24 h
Method: as §1, §2, §3

[5] = tested on: BCG-infected mice; conditions: cited from earlier work
[6] = tested on: Mycobacterium tuberculosis-sensitized guinea pigs; conditions: cited from earlier work

Compound | amount required to displace half of the label in radioimmunoassays [1] [pg] | skin reaction [2] [mm] | color intensity of skin reaction [2] | enduration [2] | tuberculin activity in skin tests [3] | other results
N[C@@H](CC(=O)O)C(=O)NCC(=O)NCC(=O)N[C@@H](CO)C(=O)N[C@@H](CCC(=O)O)C(=O)N[C@@H](CO)C(=O)N[C@@H](CCC(=O)O)C(=O)NCC(=O)O [octapeptide of formula (I), Asp-Gly-Gly-Ser-Glu-Ser-Glu-Gly] (H-DGGSESEG-OH) | 250 | 4 | low color intensity | little or no enduration |  | 
DGGSESEGK [nonapeptide 61-69] |  |  |  |  | residual tuberculin activity | 
DGGSESEGKNGSQMRL [hexadecapeptide of formula (II)] | 500000 | 8 | low color intensity | little or no enduration |  | level of recognition relative to octapeptide of formula (I) ([1]; taking into account the molecular weight): 0.1%; enduration (average) [4]: 12 mm; erythematous area, diameter (average) [4]: 11 mm
NGSQMR [hexapeptide 70-75] |  |  |  |  | residual tuberculin activity | 
NGSQMRL [synthetic heptapeptide] |  |  |  |  |  | tuberculin activity [5]: devoid of any tuberculin activity; tuberculin activity in skin tests [6]: devoid of any tuberculin activity
